Results from patent US8569298B2, “Pyridine compounds” (Astrazeneca AB, priority 2008, dated 2013).

Target: T1, FAK enzyme (6 His tagged kinase domain, GenBank NP—722560) (Homo sapiens, UniProt Q05397)
T1 construct: 6 His; made in house; host or cells: insect cell culture infected with baculovirus
Assay: In vitro enzyme assay (a): sandwich ELISA of FAK tyrosine kinase activity on polyGAT peptide, TMB colorimetric endpoint
Format: biochemical
Details: in vitro Enzyme Assay test (a); ATP at Km; geometric mean of n > 1 measurements, values marked * tested once
Method in brief: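 Recombinant His-tagged FAK kinase domain (baculovirus/insect cells) phosphorylated plate-coated polyGAT with ATP at Km, MgCl2/MnCl2, HEPES pH 7.4, 25 min at room temperature before EDTA stop. Phosphotyrosine detected by HRP-4G10 antibody and TMB absorbance at 450 nm; IC50 from 12-point curve anchored to DMSO and staurosporine controls.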

T1 sequence (Q05397 422-680 limits assumed): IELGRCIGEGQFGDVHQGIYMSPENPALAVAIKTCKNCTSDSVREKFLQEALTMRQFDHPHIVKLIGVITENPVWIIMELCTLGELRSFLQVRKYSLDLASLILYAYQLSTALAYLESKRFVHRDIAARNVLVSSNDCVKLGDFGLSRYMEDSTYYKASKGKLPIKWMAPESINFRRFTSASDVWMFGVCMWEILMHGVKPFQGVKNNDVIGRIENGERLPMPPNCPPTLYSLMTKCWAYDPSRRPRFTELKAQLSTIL

Row | SMILES | IC50 [nM]
1 | CNC(=O)c1cccc(F)c1Nc1cc(Nc2cn(C)nc2C)ncc1C(F)(F)F [Example 10.06, 2-[[2-[(1,3-dimethylpyrazol-4-yl)amino]-5-(trifluoromethyl)-4-pyridyl]amino]-3-fluoro-N-methyl-benzamide] | 10
2 | CONC(=O)c1ccccc1Nc1cc(Nc2cn(C)nc2C)ncc1C(F)(F)F [Example 10.08, 2-[[2-[(1,3-dimethylpyrazol-4-yl)amino]-5-(trifluoromethyl)-4-pyridyl]amino]-N-methoxy-benzamide] | 5
3 | CNC(=O)c1cc(SC)ccc1Nc1cc(Nc2cn(C)nc2C)ncc1C(F)(F)F [Example 10.10, 2-[[2-[(1,3-dimethylpyrazol-4-yl)amino]-5-(trifluoromethyl)-4-pyridyl]amino]-N-methyl-5-methylsulfanyl-benzamide] | 11
4 | CNC(=O)c1cc(N2CCOCC2)ccc1Nc1cc(Nc2cn(C)nc2C)ncc1C(F)(F)F [Example 10.11, 2-[[2-[(1,3-dimethylpyrazol-4-yl)amino]-5-(trifluoromethyl)-4-pyridyl]amino]-N-methyl-5-morpholino-benzamide] | 26
5 | CNC(=O)c1c(Nc2cc(Nc3cc(C)nn3C)ncc2C(F)(F)F)cccc1OC [Example 11.01, 2-[[2-[(2,5-dimethylpyrazol-3-yl)amino]-5-(trifluoromethyl)-4-pyridyl]amino]-6-methoxy-N-methyl-benzamide] | 5
6 | CNC(=O)c1nn(C)cc1Nc1cc(Nc2cccc3c2C(=O)N(C)CC3)c(Cl)cn1 [Example 12.01, 4-[[5-chloro-4-[(2-methyl-1-oxo-3,4-dihydroisoquinolin-8-yl)amino]-2-pyridyl]amino]-N,1-dimethyl-pyrazole-3-carboxamide] | 915
7 | Cc1n[nH]cc1Nc1cc(Nc2cccc3c2C(=O)N(C)CC3)c(Cl)cn1 [Example 12.03, 8-[[5-chloro-2-[(3-methyl-1H-pyrazol-4-yl)amino]-4-pyridyl]amino]-2-methyl-3,4-dihydroisoquinolin-1-one] | 2
8 | COCc1nn(C)cc1Nc1cc(Nc2cccc3c2C(=O)N(C)CC3)c(Cl)cn1 [Example 12.04, 8-[[5-chloro-2-[[3-(methoxymethyl)-1-methyl-pyrazol-4-yl]amino]-4-pyridyl]amino]-2-methyl-3,4-dihydroisoquinolin-1-one] | 22
9 | CN1CCc2cccc(Nc3cc(Nc4cn(C)nc4C#N)ncc3Cl)c2C1=O [Example 12.05, 4-[[5-chloro-4-[(2-methyl-1-oxo-3,4-dihydroisoquinolin-8-yl)amino]-2-pyridyl]amino]-1-methyl-pyrazole-3-carbonitrile] | 20

Further molecules by falling IC50, results first:

Row | IC50 [nM] | SMILES
10 | 1360 | CN(C)C(=O)c1nn(C)cc1Nc1cc(Nc2cccc3c2C(=O)N(C)CC3)c(Cl)cn1 [Example 12.02, 4-[[5-chloro-4-[(2-methyl-1-oxo-3,4-dihydroisoquinolin-8-yl)amino]-2-pyridyl]amino]-N,N,1-trimethyl-pyrazole-3-carboxamide]
11 | 462 | CNC(=O)c1ccc(S(C)(=O)=O)cc1Nc1cc(Nc2cn(C)nc2C)ncc1C(F)(F)F [Example 10.13, 2-[[2-[(1,3-dimethylpyrazol-4-yl)amino]-5-(trifluoromethyl)-4-pyridyl]amino]-N-methyl-4-methylsulfonyl-benzamide]
12 | 14 | CNC(=O)c1cc(Cl)ccc1Nc1cc(Nc2cn(C)nc2C)ncc1C(F)(F)F [Example 10.07, 5-chloro-2-[[2-[(1,3-dimethylpyrazol-4-yl)amino]-5-(trifluoromethyl)-4-pyridyl]amino]-N-methyl-benzamide]
13 | 8 | COc1nn(C)cc1Nc1cc(Nc2cccc3c2C(=O)N(C)CC3)c(Cl)cn1 [Example 12.06, 8-[[5-chloro-2-[(3-methoxy-1-methyl-pyrazol-4-yl)amino]-4-pyridyl]amino]-2-methyl-3,4-dihydroisoquinolin-1-one]
14 | 7 | CNC(=O)c1ccc(Cl)cc1Nc1cc(Nc2cn(C)nc2C)ncc1C(F)(F)F [Example 10.09, 4-chloro-2-[[2-[(1,3-dimethylpyrazol-4-yl)amino]-5-(trifluoromethyl)-4-pyridyl]amino]-N-methyl-benzamide]
